We go through seven compounds from publication PMC5500991, “Substituted arylsulphonamides as inhibitors of perforin-mediated lysis” (European Journal of Medicinal Chemistry, 2017).

The target of one data set is T1, recombinant perforin (Mus musculus, UniProt P10820).
T1 sequence (P10820 21-554): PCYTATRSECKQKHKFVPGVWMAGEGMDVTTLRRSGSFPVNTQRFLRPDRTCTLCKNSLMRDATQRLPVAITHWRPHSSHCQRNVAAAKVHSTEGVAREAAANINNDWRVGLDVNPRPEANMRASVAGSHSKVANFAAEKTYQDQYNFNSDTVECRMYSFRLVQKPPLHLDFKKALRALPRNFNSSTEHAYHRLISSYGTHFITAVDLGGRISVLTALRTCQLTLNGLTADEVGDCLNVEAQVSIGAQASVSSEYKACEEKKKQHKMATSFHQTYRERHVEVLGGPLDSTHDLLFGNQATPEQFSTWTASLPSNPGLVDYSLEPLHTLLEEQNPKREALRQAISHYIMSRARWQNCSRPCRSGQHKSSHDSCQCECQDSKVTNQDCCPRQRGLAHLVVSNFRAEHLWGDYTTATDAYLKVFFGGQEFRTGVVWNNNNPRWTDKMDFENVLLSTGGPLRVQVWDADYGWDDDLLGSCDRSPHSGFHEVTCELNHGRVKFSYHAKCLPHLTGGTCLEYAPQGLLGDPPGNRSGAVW
Kind of data set: Inhibition of perforin-mediated lysis of Jurkat cells (51Cr release). It counts as cell-based. The note with it: recombinant perforin pre-incubated with compound 30 min; 51Cr-labelled Jurkat cells, 0.1% BSA, 4 h. From the text:
The supernatant was collected and assessed for its radioactive content on a gamma counter (Wallac Wizard 1470 automatic gamma counter).

Data set [1] has as its target T2, perforin delivered by KHYG1 NK cells (Homo sapiens, UniProt P14222).
T2 construct: The use of whole NK cells to deliver perforin provides a more realistic model of conditions in vivo; endogenous in cells; host or cells: KHYG1 human NK cells (effector); K562 leukemia target cells
T2 sequence (P14222 22-555): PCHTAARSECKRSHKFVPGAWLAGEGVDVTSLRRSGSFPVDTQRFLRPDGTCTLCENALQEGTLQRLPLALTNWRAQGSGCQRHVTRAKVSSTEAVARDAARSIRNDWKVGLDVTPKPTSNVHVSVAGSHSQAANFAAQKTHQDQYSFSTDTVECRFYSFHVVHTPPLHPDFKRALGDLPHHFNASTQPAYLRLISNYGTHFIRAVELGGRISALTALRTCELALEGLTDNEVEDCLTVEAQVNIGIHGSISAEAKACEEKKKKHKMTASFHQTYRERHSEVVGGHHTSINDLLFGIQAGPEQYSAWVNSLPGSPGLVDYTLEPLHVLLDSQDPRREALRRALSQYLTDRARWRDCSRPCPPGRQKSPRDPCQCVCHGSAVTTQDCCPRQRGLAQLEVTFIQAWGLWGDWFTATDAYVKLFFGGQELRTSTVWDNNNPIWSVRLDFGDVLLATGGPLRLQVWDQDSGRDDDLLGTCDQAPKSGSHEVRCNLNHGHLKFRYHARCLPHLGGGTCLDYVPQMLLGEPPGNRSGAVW
The experiment in a line: KHYG1 inhibitory assay: lysis of 51Cr-labelled K562 target cells by KHYG1 NK cells. It counts as cell-based. The settings on record: 51Cr-labelled K562 target cells co-incubated with KHYG1 human NK cells, vs untreated control, n = 4. The method, then: The inhibitory function is then determined by identifying the number of untreated or inhibitor treated effector cells required to kill the same number of targets.

Data set [2] is described as follows: Toxicity to KHYG1 NK cells (Trypan blue exclusion). The class given is cell-based, human. The settings on record: human, viability of KHYG1 NK cells after 24 h, n = 3. How it is done:
The toxicity assay was carried out in exactly the same manner as the killing assay above, but instead of adding the labelled K562 target cells, 100 μL of RPMI 0.1% BSA was added. Cells were incubated for 4 h at 37 °C and then washed ×3 in RPMI + 0.1% BSA. […] Trypan blue was added to each well. Viable (clear) cells and total (clear + blue) cells were counted, and the percentage of viable cells was calculated compared to DMSO treated cell control (% viability).

A short description of data set [3]: Solubility of the sodium salt in water. The settings on record: sodium salt in water at room temperature. It counts as physicochemical. The method, then:
The compound was dissolved in water until it was no longer soluble in order to achieve a supersaturated concentration. The suspensions were sonicated for 15 min. prior to centrifugation at 13,000 revolutions per minute (rpm) for 6 minutes. Supernatants were removed and then recentrifuged prior to dilution of at least two fold in water to avoid precipitation during HPLC analysis.

Data set [4] can be described thus: Microsome stability, mouse. The class given is in vitro ADME. The settings on record: parent (as sodium salt) remaining after 30 min, mouse microsomes. The method, then: (§1) Microsome stability was carried out at Cyprotex using pooled human liver microsomes (male and female), pooled rat liver microsomes (male, Sprague Dawley rats), pooled mouse liver microsomes (male CD-1 mice) which were either prepared or purchased from a reputable commercial supplier. […] The final incubation volume was 25 μL. A control incubation was included for each compound tested where 0.1 M phosphate buffer pH 7.4 was added instead of NADPH (minus NADPH). Two control compounds were included with each species. All incubations were performed singularly for each test compound. Each compound was incubated for 0, 5, 15, 30 and 45 min. The control (minus NADPH) was incubated for 45 min only. The reactions were stopped by the addition of 50 μL methanol containing internal standard at the appropriate time points. The incubation plates were centrifuged at 2,500 rpm for 20 min at 4 °C to precipitate the protein. Following precipitation, the sample supernatants were combined in cassettes of up to 4 compounds and analysed using Cyprotex generic LC-MS/MS conditions. From a plot of ln peak area ratio (compound peak area/internal standard peak area) against time, the percentage compound remaining at 30 min was calculated. Results that were > 100% of matched control were defined as 100%.

A short description of data set [5]: Stability in solution (water, 20 °C, 24 h). It counts as physicochemical. The note with it: sodium salt, 24 h at 20 °C in water. How it is done:
Test compounds were incubated (10 μM; < 2.5% DMSO in final concentration) in Milli Q water (n=3 tubes) at 20 °C for 24 h. (Eppendorf Thermomixer Comfort). Aliquots were collected (25 μL) just before the incubation (time “0 min”) and at 24 h. These samples were stored in a -80 °C freezer until the analysis by liquid chromatography with tandem mass spectrometry spectrometry (LC-MS/MS) – see next section for method development. Samples were thawed on wet ice on the day of assay. Thawed aliquots were mixed by vortex mixer, 10 μL of the sample transferred to a clean tube, 40 μL of ice cold acetonitrile added (containing internal standard compound), then centrifuged at 13,000 rpm for 5 min, 40 μL of clear supernatant transferred to an HPLC insert and mixed with 80 μL of 0.01% formic acid in water. Ten to 20 μL was injected onto the LC-MS/MS system. Results are based on the peak area ratio of drug to internal standard at time “0 h” (i.e. before the incubation and at the end i.e. “24 h”).

Data set [6] can be described thus: In vivo plasma pharmacokinetics in mice. The settings on record: mouse plasma, 10 mg/kg i.p. in 20% hydroxypropyl-β-cyclodextrin. How it is done: The in vivo PK parameters were measured for seven compounds selected on the basis of the in vitro assessment described above. Plasma pharmacokinetics were determined in male CD-1 mice for compounds 3, 10, 11, 26, 50, 58 and 59 (Table 6). Blood samples were collected at 5–8 time-points after dosing the compounds at 10 mg/kg in a solution of 20% hydroxypropyl-β-cyclodextrin by intraperitoneal (IP) injection. For analysis of the samples, chromatographic conditions were optimised by HPLC for each compound of interest and an internal standard. A liquid chromatography with tandem mass spectrometry (LC-MS/MS) method was then developed and validated for quantitation of each analyte.
PK studies were carried out in female C57BL/6J (female) mice using IP administration of test compound, dosing at 10 mg/kg in a solution of 20% hydroxypropyl-β-cyclodextrin. Mice (n=3 at each time point) were culled with excess inhalation of CO2 and blood collected by cardiac puncture at 5-8 time points after dosing in ice cold EDTA tubes. Plasma was separated by centrifuging at 6000 rpm for 5 min and stored at -80°C until analysis by LC-MS/MS. Frozen plasma was thawed on wet ice on the day of analysis. Ten μL of sample was transferred to a clean microcentrifuge tube and mixed with ice cold acetonitrile (40 μL containing internal standard) to precipitate the plasma proteins. The tubes were centrifuged at 13000 rpm for 5 min to obtain a clear supernatant which was mixed with 0.01% formic acid-water (1:2). Ten to twenty µL was injected into the LC-MS/MS to measure the analyte concentration in the sample. The samples were quantitated against a calibration curve of known analyte concentrations run in test species blank plasma (sourced from Innovative Research, USA). The concentration vs time data was then fitted into a pharmacokinetic software program (Phoenix WinNonlin v6.2) to calculate the PK parameters including T½, Cmax and AUC0-∞.

A further data set in a line: Microsome stability, rat. The class given is in vitro ADME. The note with it: parent (as sodium salt) remaining after 30 min, rat microsomes. How it is done:
as §1

What is called melting point is the temperature of the solid-liquid transition. The compound `CN1Cc2cc(-c3ccc(-c4ccc(NS(=O)(=O)c5ccc(F)cc5F)nc4)s3)ccc2C1=O` [Compound 4, 2,4-Difluoro-N-(5-(5-(2-methyl-1-oxoisoindolin-5-yl)thiophen-2-yl)pyridin-2-yl)benzenesulfonamide] had a melting point of 269 to 272 °C. Also, on recombinant perforin, the “Inhibition of Jurkat Cell Lysis IC50” value is recorded as “activity is abolished”.

As to `CN1Cc2cc(-c3ccc(-c4cncc(NC(=O)c5ccc(F)cc5F)c4)s3)ccc2C1=O` [Compound 8, 2,4-Difluoro-N-(5-(5-(2-methyl-1-oxoisoindolin-5-yl)thiophen-2-yl)pyridin-3-yl)benzamide], the melting point is 267 to 269 °C. The “Inhibition of Jurkat Cell Lysis IC50” value on recombinant perforin is recorded as “complete loss of potency”.

The inhibition is the change of the read-out against control, counted positive when it falls. The term viability denotes the share of living cells, or the viability signal relative to a control. Low values mean more harm to the cells, high ones less harm to the cells. As a reminder, the solubility is how much of the substance goes into solution per volume. One may read the Cmax as the maximum level reached in the sampled fluid or tissue. Consider `CN1Cc2cc(-c3ccc(-c4cncc(NS(=O)(=O)c5c(F)cc(F)cc5F)c4)s3)ccc2C1=O` [Compound 26, 2,4,6-Trifluoro-N-(5-(5-(2-methyl-1-oxoisoindolin-5-yl)thiophen-2-yl)pyridin-3-yl)benzenesulfonamide], for which the inhibition at 10 µM in data set [1] was 81.3 ± 6.3%. For the same compound, the viability at 24 h, 10 µM in data set [2] is 95.1 ± 2.1%. In addition, in data set [3], the Solubility entry is “highly soluble” and the solubility at 15 min stood at 10700 µg/mL. In [4], the “Microsome Stability (%) Mouse” value came to 100%. For the same compound, the “Stability in Solution (% parent remaining)” value in data set [5] came to 88%. Also, in [6], the “AUC0-∞” value is 1019 µM·h, the concentration peaked (Cmax) at 124 µM and the T1/2 is reported as 4.5 h. In addition, the “Microsome Stability (%) Rat” value in “Microsome stability, rat” is on record as 83%.

For the compound `CN1Cc2cc(-c3ccc(-c4cncc(NS(=O)(=O)c5ccccc5C(F)(F)F)c4)s3)ccc2C1=O` [Compound 44, N-(5-(5-(2-Methyl-1-oxoisoindolin-5-yl)thiophen-2-yl)pyridin-3-yl)-2-(trifluoromethyl)benzenesulfonamide], the inhibition at 10 µM in data set [1] came out at 85 ± 5.6%. The viability at 24 h, 10 µM in data set [2] was found to be 100%. Also, in data set [3], the Solubility result is “negative impact on solubility” and the solubility at 15 min worked out at 88 µg/mL. In data set [4], the “Microsome Stability (%) Mouse” value is 84%. In addition, in [5], the “Stability in Solution (% parent remaining)” value turned out to be 92%. The “Microsome Stability (%) Rat” value in the data set “Microsome stability, rat” turned out to be 49%.

`CN1Cc2cc(-c3ccc(-c4cncc(NS(=O)(=O)c5cccc(C(F)(F)F)c5)c4)s3)ccc2C1=O` [Compound 45, N-(5-(5-(2-Methyl-1-oxoisoindolin-5-yl)thiophen-2-yl)pyridin-3-yl)-3-(trifluoromethyl)benzenesulfonamides]: the inhibition at 10 µM in data set [1] came to 88.8 ± 1.9%. In [2], this compound yielded a viability at 24 h, 10 µM of 100%. In data set [3], the Solubility result is given as “negative impact on solubility” and the solubility at 15 min stood at 574 µg/mL. Moreover, in data set [4], the “Microsome Stability (%) Mouse” value worked out at 97%. Moreover, the “Microsome Stability (%) Rat” value in “Microsome stability, rat” is on record as 80%.

In the case of `CN1Cc2cc(-c3ccc(-c4cncc(NS(=O)(=O)c5ccc(C#N)cc5)c4)s3)ccc2C1=O` [Compound 50, 4-Cyano-N-(5-(5-(2-methyl-1-oxoisoindolin-5-yl)thiophen-2-yl)pyridin-3-yl)benzenesulfonamide], the inhibition at 10 µM in data set [1] turned out to be 75 ± 7.8%. The compound further registered a viability at 24 h, 10 µM in [2] of 99.3 ± 0.3%. In addition, in [3], the Solubility entry is “highly soluble” and the solubility at 15 min stood at 12900 µg/mL. For the same compound, in data set [4], the “Microsome Stability (%) Mouse” value stood at 87%. Also, the “Stability in Solution (% parent remaining)” value in [5] was determined as 85%. In addition, in data set [6], the “AUC0-∞” value was found to be 642 µM·h, the Cmax was 87 µM and the T1/2 was 3.3 h. The “Microsome Stability (%) Rat” value in “Microsome stability, rat” worked out at 64%.

Consider `CN1Cc2cc(-c3ccc(-c4cncc(NS(=O)(=O)c5ccc([N+](=O)[O-])cc5)c4)s3)ccc2C1=O` [Compound 59, N-(5-(5-(2-Methyl-1-oxoisoindolin-5-yl)thiophen-2-yl)pyridin-3-yl)-4-nitrobenzenesulfonamide], for which the inhibition at 10 µM in [1] was found to be 77.5 ± 5.6%. The viability at 24 h, 10 µM in [2] turned out to be 85 ± 12%. The solubility at 15 min in [3] came to 1680 µg/mL. Further, in [4], the “Microsome Stability (%) Mouse” value was found to be 85%. For the same compound, in data set [6], the “AUC0-∞” value was 383 µM·h, the Cmax came out at 64 µM and the T1/2 is on record as 2.2 h. Besides, the “Microsome Stability (%) Rat” value in “Microsome stability, rat” was 72%.
